A short description of data set [1]: Pharmacokinetics and metabolites in mouse plasma after oral psilocybin. The data set is classed as in vivo, C57BL/6J mice. The conditions noted are these: for half-life / Cmax / Tmax: male, C57BL/6J, po; for half-life: mouse, plasma, read-out: elimination half-life t1/2 (mean ± SD) (converted); for Cmax: read-out: Cmax (mean ± SD); for Tmax: read-out: tmax (mean ± SD). As to the method: C57BL/6J adult male mice (Janvier, Le Genest-Saint-Isle, France) were maintained in littermate pairs in standard cages (containing sawdust, a sleeping chamber, tissue paper, and a wood stick) with water and pellet food available ad libitium. The colony room was on a reversed light-dark cycle (dark phase 07:00 to 19:00) with temperature at 22°C and humidity at 50–60%. A total of 10 mice were dosed orally with either 3 mg/kg bodyweight psilocybin (n = 5) or saline solution (n = 5). Dosing and blood sampling were conducted between 09:00 and 13:00. The mouse was placed in a plastic restrainer with the tail protruding through a hole in the end of the tube. The tail was immersed in warm water for 1 min for vasodilation and then a small incision was made on the lateral tail surface near the distal tip. 50 μL of blood was massaged gently into an EDTA-coated capillary blood tube (Mircovette, Sarstedt, Nümbrecht, Germany). The first (baseline) blood sample was collected directly before compound administration via oral gavage and the mouse was then returned to the home cage. Further blood samples were collected at 15, 30, 60, and 120 min post-treatment. Each sample was drawn from the same incision site, with mice maintained in the home cage in the intervening periods. The blood samples were stored on ice and centrifuged for 10 min at 780 × g and 4°C. Subsequently, the plasma was transferred into cryotubes (Protein LoBind, Eppendorf) and stored at −80 °C until analysis. All procedures were conducted under a permit for animal experimentation (ZH038/2022) issued by the Veterinary Office Zurich in accordance with the Animal Protection Act (1978) of Switzerland. The use of psilocybin was authorized by the Federal Office of Public Health (FOPH).
Pharmacokinetic parameters were calculated using Phoenix WinNonlin software (version 8.1.0, Certara, Princeton, USA). The elimination half-life (t1/2, min) was assessed as t1/2 = ln(2)/λ, while the elimination constant was calculated by linear regression in the terminal elimination phase. The maximal plasma concentration (Cmax, ng/mL) and the time to reach this concentration (tmax, h) were direct read-outs of the graphical plots.

The target in a further data set is T1, recombinant MAO-A (Homo sapiens, UniProt P21397).
T1 construct: purchased Corning Life Sciences B.V
T1 sequence (P21397 1-527): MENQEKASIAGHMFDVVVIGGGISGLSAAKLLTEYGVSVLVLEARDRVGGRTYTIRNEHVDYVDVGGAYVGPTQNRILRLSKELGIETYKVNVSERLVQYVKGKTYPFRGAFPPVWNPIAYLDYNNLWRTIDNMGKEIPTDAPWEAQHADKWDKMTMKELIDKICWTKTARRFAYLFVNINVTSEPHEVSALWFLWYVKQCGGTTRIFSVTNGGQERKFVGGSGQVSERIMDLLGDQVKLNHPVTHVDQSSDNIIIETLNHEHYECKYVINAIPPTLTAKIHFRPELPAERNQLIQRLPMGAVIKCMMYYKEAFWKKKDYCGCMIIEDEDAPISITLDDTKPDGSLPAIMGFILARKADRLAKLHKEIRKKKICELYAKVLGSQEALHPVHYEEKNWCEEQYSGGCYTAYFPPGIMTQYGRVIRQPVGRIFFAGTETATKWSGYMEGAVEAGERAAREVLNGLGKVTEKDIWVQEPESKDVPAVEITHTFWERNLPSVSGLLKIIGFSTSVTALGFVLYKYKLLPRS
Nature of the data set: Incubation with recombinant MAO-A enzymes. The data set is classed as in vitro ADME. The method, then:
(§1) Corning UltraPool human liver microsomes (HLM) 150 (20 mg/mL), human intestinal microsomes (HIM) pool (10 mg/mL) as well as recombinant human CYP enzymes (with P450 oxidoreductase, OR) including CYP1A2+OR (0.5 nmol), CYP2B6+OR (0.5 nmol), CYP2C8+OR (1.0 nmol), CYP2C9*1+OR (1 nmol), CYP2C19+OR (0.5 nmol), CYP2D6*1+OR (0.5 nmol), CYP2E1+OR + cytochrome b5 (1 nmol), CYP3A4+OR + cytochrome b5 (0.5 nmol), MAO-A (5 mg/mL), MAO-B (5 mg/mL), and UGT1A10 (5 mg/mL) were purchased from Corning Life Sciences B.V (Amsterdam, Netherlands). All microsomes and recombinant enzyme solutions were aliquoted and stored at −80 °C until further use.
(§2) The MAO inhibition assay was based on the assay described in section 2.5.1 and performed identically if not otherwise stated.

The target in another data set is T2, recombinant MAO-B (Homo sapiens, UniProt P27338).
T2 construct: purchased Corning Life Sciences B.V
T2 sequence (P27338 1-520): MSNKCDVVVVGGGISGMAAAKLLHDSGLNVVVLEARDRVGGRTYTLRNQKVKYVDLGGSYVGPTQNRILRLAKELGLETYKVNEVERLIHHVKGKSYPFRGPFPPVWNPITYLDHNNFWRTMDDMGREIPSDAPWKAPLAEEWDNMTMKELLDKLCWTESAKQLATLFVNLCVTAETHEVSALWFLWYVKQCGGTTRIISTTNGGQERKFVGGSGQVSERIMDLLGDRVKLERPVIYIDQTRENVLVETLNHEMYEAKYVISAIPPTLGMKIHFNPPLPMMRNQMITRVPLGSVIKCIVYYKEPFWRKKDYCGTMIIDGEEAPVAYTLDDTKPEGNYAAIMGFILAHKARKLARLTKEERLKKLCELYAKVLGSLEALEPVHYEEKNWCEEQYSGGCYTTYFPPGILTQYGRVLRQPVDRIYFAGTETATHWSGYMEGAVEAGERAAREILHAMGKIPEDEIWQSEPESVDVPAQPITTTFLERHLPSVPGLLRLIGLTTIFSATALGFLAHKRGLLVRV
Kind of data set: Incubation with recombinant MAO-B enzymes. The format is in vitro ADME. As to the method: as §1, §2

The target in data set [2] is T3, MAO-A in human liver microsomes (HLM) (Homo sapiens, UniProt P21397).
T3 construct: tissue Corning Life Sciences B.V; host or cells: pooled human liver microsomes
T3 sequence (P21397 1-527): T1 sequence (P21397 1-527)
Kind of data set: Monoamine oxidase A inhibition in human liver microsomes. The conditions noted are these: 5 μM kynuramine, t = 240 min. The data set is classed as in vitro ADME. (In general: Liver microsomes are vesicles of endoplasmic reticulum, rich in cytochrome P450 enzymes.)

For data set [3], the target named is T4, recombinant human UGT1A10 (Homo sapiens, UniProt Q9HAW8).
T4 construct: purchased Corning Life Sciences B.V
T4 sequence (Q9HAW8 26-530): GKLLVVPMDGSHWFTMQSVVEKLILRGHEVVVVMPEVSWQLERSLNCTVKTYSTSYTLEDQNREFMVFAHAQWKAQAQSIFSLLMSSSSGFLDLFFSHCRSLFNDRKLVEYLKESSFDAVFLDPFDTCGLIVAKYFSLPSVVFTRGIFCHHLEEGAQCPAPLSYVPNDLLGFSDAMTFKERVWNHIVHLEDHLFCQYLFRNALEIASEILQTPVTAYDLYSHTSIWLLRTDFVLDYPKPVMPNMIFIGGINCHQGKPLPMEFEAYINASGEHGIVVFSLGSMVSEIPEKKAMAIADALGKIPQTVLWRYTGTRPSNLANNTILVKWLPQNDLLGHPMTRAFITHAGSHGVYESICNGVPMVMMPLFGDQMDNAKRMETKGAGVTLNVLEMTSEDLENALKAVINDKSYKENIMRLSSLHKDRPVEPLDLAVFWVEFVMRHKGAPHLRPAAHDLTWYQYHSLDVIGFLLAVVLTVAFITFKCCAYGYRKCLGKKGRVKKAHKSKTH
Nature of the data set: Glucuronidation with recombinant UGT1A10. The data set is classed as in vitro ADME. The method, then:
as §1
The assay described in section 2.5.1 was adjusted to suit the glucuronidation system.

Data set [4] relates to human intestinal microsomes (HIM). Kind of data set: Glucuronidation with human intestinal microsomes. The format is in vitro ADME. The conditions noted are these: HIM. As to the method:
as §1, with “use. Co-factors including NADPH regenerating system solution A (25 mM NADP+, 66 mM glucose-6-phosphate, and 66 mM MgCl2 in water), NADPH regenerating system solution B (40 U/mL glucose-6-phosphate dehydrogenase in 5 mM sodium citrate), UGT reaction mix solution A (25 mM uridine 5′-diphospho-glucuronic acid in water), and UGT reaction mix solution B (250 mM Tris-HCl, 40 mM MgCl2, and 0.125 mg/mL alamethicin in water) were also obtained from Corning Life Sciences B.V.” for “use.”
The assay described in section 2.5.1 was adjusted to suit the glucuronidation system. […] HLM were diluted as described in section 2.5.1, while HIM or UGT1A10 enzymes were diluted 1:40 (end concentration […] and 0.125 mg/mL, respectively) in the reaction mix. Sampling time points were adjusted to 0, 15, 30, 60, 90, 120, 180, and 240 min.

For data set [5] the following is noted: ref Holze et al., 2022a, cited from earlier work.
The mark [6] stands for this setting: 3 mg/kg, mouse plasma, 3 mg/kg psilocybin p.o., n = 5.
The mark [7] stands for this setting: mouse plasma, 3 mg/kg psilocybin p.o., n = 5.
The mark [8] stands for this setting: 1,000 nM DMT, rec. MAO-A, t = 240 min.
Where [9] appears, read: 1,000 nM DMT, rec. MAO-B, t = 240 min.

Counter-ions that a name gives are not always drawn.

`O=C(O)Cc1c[nH]c2cccc(OC3O[C@H](C(=O)O)[C@@H](O)[C@H](O)[C@H]3O)c12` (stereo partly drawn) [4-HIAA-glucuronide]: in data set [1] (setting [6]), the half-life is 82.8 ± 16.2 min. For the same compound, in data set [1] (setting [7]), the Cmax (usually the maximum level reached in the sampled fluid or tissue) is 30 ± 6.7 ng/mL and the Tmax (usually the time from dosing to the highest level) is 27 ± 6.6 min.
Regarding `Oc1ccnc2ccccc12` [4-HQ, 4-hydroxyquinoline], the “4-HQ concentration formed from kynuramine” value on recombinant MAO-A (5 μM kynuramine, rec. MAO-A, t = 300 min) was 2,694 ± 264 nM; on recombinant MAO-B (5 μM kynuramine, rec. MAO-B, t = 240 min), 4,692 ± 891 nM; in data set [2] (HLM with clorgyline), 347 ± 67 nM; in data set [2] (HLM), 1,974 ± 302 nM.
Take `CN(C)CCc1c[nH]c2ccccc12` [DMT, N,N-dimethyltryptamine]: the DMT concentration at recombinant MAO-A (1,000 nM DMT, rec. MAO-A, t = 0 min) was 907 ± 31 nM; at recombinant MAO-A (setting [8]), 110 ± 29 nM; at recombinant MAO-A (rec. MAO-A with clorgyline, t = 0 min), 915 ± 11 nM; on recombinant MAO-A (rec. MAO-A with clorgyline, t = 240 min), 853 ± 69 nM; at recombinant MAO-B (1,000 nM DMT, rec. MAO-B, t = 0 min), 940 ± 47 nM; at recombinant MAO-B (setting [9]), 816 ± 56 nM. In addition, the DMT concentration on recombinant MAO-B (rec. MAO-B with R-deprenyl, t = 0 min) was 954 ± 73 nM; at recombinant MAO-B (rec. MAO-B with R-deprenyl, t = 240 min), 1,008 ± 58 nM.
`O=C(O)Cc1c[nH]c2ccccc12` [IAA, indole-3-acetic acid]: the “IAA concentration formed from DMT” value at recombinant MAO-A (setting [8]) is reported as 30.3 ± 4.2 nM; at recombinant MAO-B (setting [9]) it was 11.5 ± 4.5 nM.
On to `O=C1Nc2c(O)cc(Cl)cc2[C@@](C#CC2CC2)(C(F)(F)F)O1` [OH-efavirenz, 8-hydroxy-efavirenz], for which the OH-efavirenz glucuronidated is recorded as 98% in data set [3] (rec. UGT1A10, over 240 min, control condition) and 99% in data set [4] (over 240 min, control condition). Further, the OH-efavirenz peak area in data set [3] (rec. UGT1A10, t = 0) was 41,700 ± 10,936 counts; in data set [3] (rec. UGT1A10, t = 240 min), 1,007 ± 155 counts; in data set [4] (t = 0) it was 45,300 ± 5,766 counts; in data set [4] (t = 240 min) it was 470 ± 394 counts.
Turning to `NCCC(=O)c1ccccc1N` [kynuramine, kynuramine dihydrobromide], the kynuramine signal at recombinant MAO-A (rec. MAO-A, t = 0 min) was 135,200 ± 23,816 counts; on recombinant MAO-A (rec. MAO-A, t = 300 min) it was 48,503 ± 12,251 counts; on recombinant MAO-B (rec. MAO-B, t = 0 min) it was 82,853 ± 11,336 counts; on recombinant MAO-B (rec. MAO-B, t = 240 min), 9,533 ± 8,311 counts.
Turning to `CN(C)CCc1c[nH]c2cccc(OC3O[C@H](C(=O)O)[C@@H](O)[C@H](O)[C@H]3O)c12` (stereo partly drawn) [psilocin-O-glucuronide], the half-life in data set [1] (setting [6]) is 58.2 ± 3.6 min. In data set [1] (setting [7]), the Cmax worked out at 521 ± 57 ng/mL and the Tmax was determined as 21 ± 8.4 min. The “mean Cmax relative to psilocin (higher)” value in data set [1] (mouse plasma, 3 mg/kg psilocybin p.o.) was determined as 2.6 fold. Besides, in data set [1] (mouse plasma, 3 mg/kg psilocybin p.o., n = 5, 3 mg/kg), the “elimination half-life t1/2 (mean ± SD)” value was around 60 min. The “half-life in mice relative to humans (lower)” value in data set [1] (mouse versus human) is given as “around 4 fold”. Moreover, the “plasma concentrations of conjugated psilocin relative to free psilocin (higher)” value in data set [5] (clinical studies) is listed as “around 4 fold”. Also, the “fraction of administered psilocybin dose excreted in urine” value in data set [5] (humans, oral psilocybin, within 24 h (time not stated for 4-HIAA)) was “Approximately 20%”. The half-life in humans result in data set [5] (humans) is “around 4 h”.

(Values after paper PMC11089204 (Frontiers in Pharmacology, 2024).)
